Source: ChEMBL document CHEMBL1124952, “Growth inhibition and induction of cellular differentiation of human myeloid leukemia cells in culture by carbamoyl congeners of ribavirin” (1990)

Experiments:
Format in all cases: functional
HL-60 = assay: Evaluated for cell growth inhibition and induction of cellular differentiation of human myeloid leukemia cell line (HL-60); details: read-out: ID50 (the source's name)
L1210 = assay: Evaluated for cell growth inhibition and induction of cellular differentiation of Murine leukemia cell line (L-1210); details: Mus musculus, read-out: ID50 (the source's name)
K562 = assay: Evaluated for cell growth inhibition and induction of cellular differentiation of human myeloid leukemia cell line (K562); details: read-out: ID50 (the source's name)
[1] = Evaluated for cell growth inhibition and induction of cellular differentiation of human B-lymphoblast cell line (WI-L2); details: WIL2, read-out: ID50 (the source's name)

Compound | IC50 (HL-60) | IC50 (L1210) | IC50 (K562) | IC50 [1]
N=C(NO)c1nn(C2O[C@H](CO)[C@@H](O)[C@H]2O)c(N)c1/C(N)=N/O (stereo not given in full) | > 200 µM | > 200 µM | > 200 µM | > 200 µM
N=C(S)c1nn(C2O[C@H](CO)[C@@H](O)[C@H]2O)nc1C(N)=S (stereo not given in full) | > 200 µM | > 200 µM | > 200 µM | > 200 µM
N=C(N)c1nn(C2OC(CO)[C@H](O)C2O)c(N)c1C(=N)N (stereo not given in full) | 130 µM | 200 µM | > 200 µM | 179 µM
N=C(S)c1nn(C2O[C@H](CO)[C@@H](O)[C@H]2O)c(N)c1C(N)=S (stereo not given in full) | 200 µM | > 200 µM | > 200 µM | 154 µM
NC(=O)c1cn(C2O[C@H](CO)[C@@H](O)[C@H]2O)nc1C(N)=O (stereo not given in full) | 58 µM | > 100 µM | 160 µM | 100 µM
N=C(NO)c1nn(C2O[C@H](CO)[C@@H](O)[C@H]2O)nc1/C(N)=N/O (stereo not given in full) | > 200 µM | > 200 µM | > 200 µM | > 200 µM
NC(=O)c1cn(C2O[C@H](CO)[C@@H](O)[C@H]2O)cc1C(N)=O (stereo not given in full) | 36 µM | 48 µM | 32 µM | 33 µM
NC(=O)c1nn(C2O[C@H](CO)[C@@H](O)[C@H]2O)c(N)c1C(N)=O (stereo not given in full) | 39 µM | 44 µM | 51 µM | 46 µM
NC(=O)c1ncn([C@@H]2O[C@H](CO)[C@@H](O)[C@H]2O)n1 [RIBAVIRIN] | 67 µM | 36 µM | 50 µM | 42 µM
NC(=O)c1nn([C@@H]2O[C@H](CO)[C@@H](O)[C@H]2O)nc1C(N)=O | 32 µM | > 100 µM | 26 µM | 41 µM
